Test results: US20080255041A1, “Treatment of annulus fibrosis defects” (EBI, L.P., priority 2007, published 2008)

Test system: annulus fibrosis of the defective disc
Assay: Injection of the composition into the annulus fibrosis of a patient with degenerative disc disease
Format: in vivo, human
Conditions: patient with transverse annulus fibrosis tear between fifth lumbar and sacrum; F2A4-K—NS in hyaluronic acid carrier injected by syringe
Description: A syringe containing the synthetic molecule F2A4-K—NS and a hyaluronic acid carrier is used to inject the composition into the annulus fibrosis of the defective disc. […] In the above example, collagen, heparin sulfate or propylene glycol is substituted for hyaluronic acid, to form gel carriers, with substantially similar results.

For “H—YRSRKYSSWYVALKRK(H—YRSKYSSWYVALKR)-Ahx-Ahx-Ahx-RKRLDRIAR—NH2 [F2A4-K—NS]”, the “angiogenesis at the site of the annulus fibrosis defect” value was “promotes angiogenesis” and the “degeneration of the disc / closure of the annulus fibrosis tear” value was “prevents further degeneration of the disc”.
